According to patent US10023543B2 (CELGENE QUANTICEL RESEARCH, INC., priority 2014, dated 2018):

What follows are molecules tested on THP-1 (AML) cells (assay: LSD1 CD11b cellular assay (flow cytometry)). Details: Homo sapiens, THP-1, 96 h, read-out: THP-1 IC50 (μM).
Assay type: cell-based

Row | Compound | IC50
1 | COc1ccc(-c2c(-c3ccc(C#N)cc3)nc(N3CCC(N)CC3)n(C)c2=O)cc1 [Example 2, 4-[2-(4-amino-piperidin-1-yl)-5-(4-methoxy-phenyl)-1-methyl-6-oxo-1,6-dihydro-pyrimidin-4-yl]-benzonitrile] | < 0.1 µM

Same assay, conditions: Homo sapiens, THP-1, 96 h; CD11b expressing cells, 4 days; read-out: THP-1 IC50

Row | Compound | IC50
2 | COc1ccc(-c2c(-c3ccc(C#N)c(F)c3)nc(N3CCC[C@@H](N)C3)n(C)c2=O)cc1 [Example 30, 4-[2-((3R)-3-aminopiperidyl)-5-(4-methoxyphenyl)-1-methyl-6-oxohydro-pyrimidin-4-yl]-2-fluorobenzenecarbonitrile] | < 0.1 µM
3 | Cn1c(N2CCC(N)CC2)nc(-c2ccc(C#N)c(F)c2)c(Cl)c1=O [Example 20, 4-[2-(4-aminopiperidin-1-yl)-5-chloro-1-methyl-6-oxopyrimidin-4-yl]-2-fluorobenzonitrile] | 0.1 to 1 µM
4 | CCc1ccc(-c2c(-c3ccc(C#N)cc3)nc(N3CCC(N)CC3)n(C)c2=O)cn1 [Example 10, 4-[2-(4-amino-piperidin-1-yl)-5-(6-ethyl-pyridin-3-yl)-1-methyl-6-oxo-1,6-dihydro-pyrimidin-4-yl]-benzonitrile] | 0.1 to 1 µM
5 | COc1ccc(-c2c(-c3ccc(C#N)c(F)c3)nc(N3CCNCC3)n(C)c2=O)cc1F [Example 47, 2-fluoro-4-[5-(3-fluoro-4-methoxy-phenyl)-1-methyl-6-oxo-2-piperazin-1-yl-1,6-dihydro-pyrimidin-4-yl]-benzonitrile] | 0.1 to 1 µM
6 | Cn1c(N2CCC(N)CC2)nc(-c2ccc(C#N)c(F)c2)c(-c2ccc3c(c2)CNC3=O)c1=O [Example 42, 4-[2-(4-amino-piperidin-1-yl)-1-methyl-6-oxo-5-(1-oxo-2,3-dihydro-1H-isoindol-5-yl)-1,6-dihydro-pyrimidin-4-yl]-2-fluoro-benzonitrile] | 0.1 to 1 µM
7 | COc1ccc(-c2c(-c3ccc(C#N)c(F)c3)nc(N3CCC(N)CC3)n(CC(N)=O)c2=O)cc1 [Example 16, 2-[2-(4-amino-piperidin-1-yl)-4-(4-cyano-3-fluoro-phenyl)-5-(4-methoxy-phenyl)-6-oxo-6H-pyrimidin-1-yl]-acetamide] | < 0.1 µM
8 | COc1ccc(-c2c(-c3ccc(C#N)c(F)c3)nc(N3CCC(N)CC3)n(CC(=O)O)c2=O)cc1 [Example 15, [2-(4-amino-piperidin-1-yl)-4-(4-cyano-3-fluoro-phenyl)-5-(4-methoxy-phenyl)-6-oxo-6H-pyrimidin-1-yl]-acetic acid] | 1 to 10 µM
9 | CN(C)c1ccc(-c2c(-c3ccc(C#N)c(F)c3)nc(N3CCC(N)CC3)n(C)c2=O)cn1 [Example 57, 4-[2-(4-amino-piperidin-1-yl)-5-(6-dimethylamino-pyridin-3-yl)-1-methyl-6-oxo-1,6-dihydro-pyrimidin-4-yl]-2-fluoro-benzonitrile] | < 0.1 µM
10 | Cn1c(N2CCC(N)CC2)nc(-c2ccc(C#N)c(F)c2)c(C#CC2CCCC2)c1=O [Example 14, 4-[2-(4-amino-piperidin-1-yl)-5-cyclopentylethynyl-1-methyl-6-oxo-1,6-dihydro-pyrimidin-4-yl]-2-fluoro-benzonitrile] | < 0.1 µM
11 | CN(C)c1ccc(-c2c(-c3ccc(C#N)c(F)c3)nc(N3CCCNCC3)n(C)c2=O)cn1 [Example 63, 4-[2-[1,4]diazepan-1-yl-5-(6-dimethylamino-pyridin-3-yl)-1-methyl-6-oxo-1,6-dihydro-pyrimidin-4-yl]-2-fluoro-benzonitrile] | < 0.1 µM
12 | CNC(=O)c1ccc(-c2c(-c3ccc(C#N)c(F)c3)nc(N3CCC(N)CC3)n(C)c2=O)cn1 [Example 50, 5-[2-(4-amino-piperidin-1-yl)-4-(4-cyano-3-fluoro-phenyl)-1-methyl-6-oxo-1,6-dihydro-pyrimidin-5-yl]-pyridine-2-carboxylic acid methylamide] | < 0.1 µM
13 | COc1ccc(-c2c(-c3ccc(C#N)c(F)c3)nc(N3CCC[C@H](N)C3)n(C)c2=O)cc1 [Example 31, 4-[2-((3S)-3-amino-piperidin-1-yl)-5-(4-methoxy-phenyl)-1-methyl-6-oxo-1,6-dihydro-pyrimidin-4-yl]-2-fluoro-benzonitrile] | < 0.1 µM
14 | Cn1cc2cc(-c3c(-c4ccc(C#N)c(F)c4)nc(N4CCC(N)CC4)n(C)c3=O)ccc2n1 [Example 37, 4-[2-(4-aminopiperidyl)-1-methyl-5-(2-methyl(2H-indazol-5-yl))-6-oxohydropyrimidin-4-yl]-2-fruorobenzenecarbonitrile] | < 0.1 µM
15 | COc1ccc(-c2c(-c3ccc(C#N)cc3)nc(N3CCCNCC3)n(C)c2=O)cn1 [Example 62] | 0.1 to 1 µM
16 | Cn1c(N2CCC(N)CC2)nc(-c2ccc(C#N)c(F)c2)c(-c2ccc3occc3c2)c1=O [Example 18, 4-[2-(4-amino-piperidin-1-yl)-5-benzofuran-5-yl-1-methyl-6-oxo-1,6-dihydro-pyrimidin-4-yl]-2-fluoro-benzonitrile] | < 0.1 µM
17 | Cn1c(N2CCC(N)CC2)nc(-c2ccc(C#N)c(F)c2)c(-c2ccc(C(F)(F)F)nc2)c1=O [Example 23, 4-{2-(4-aminopiperidyl)-1-methyl-6-oxo-5-[6-(trifluoromethyl) (3-pyridyl)]hydropyrimidin-4-yl}-2-fluorobenzenecarbonitrile] | < 0.1 µM
18 | COc1ccc(-c2c(-c3ccc(C#N)c(F)c3)nc(N3CCC(C)(N)CC3)n(C)c2=O)cc1F [Example 32, 4-[2-(4-amino-4-methyl-piperidin-1-yl)-5-(3-fluoro-4-methoxy-phenyl)-1-methyl-6-oxo-1,6-dihydro-pyrimidin-4-yl]-2-fluoro-benzonitrile] | < 0.1 µM
19 | COc1ccc(-c2c(-c3ccc(C#N)c(F)c3)nc(N(C)C[C@@H]3CCNC3)n(C)c2=O)cc1 (stereo in doubt) [Example 56, 2-fluoro-4-[5-(4-methoxy-phenyl)-1-methyl-2-(methyl-pyrrolidin-3-ylmethyl-amino)-6-oxo-1,6-dihydro-pyrimidin-4-yl]-benzonitrile] | < 0.1 µM
20 | COc1ccc(-c2c(-c3ccc(C#N)c(F)c3)nc(N3CC[C@H](N)C3)n(C)c2=O)cc1F [Example 29, 4-[2-((3S)-3-amino-pyrrolidin-1-yl)-5-(3-fluoro-4-methoxy-phenyl)-1-methyl-6-oxo-1,6-dihydro-pyrimidin-4-yl]-2-fluoro-benzonitrile] | 0.1 to 1 µM
21 | COc1ccc(-c2c(-c3ccc(C#N)c(F)c3)nc(NC[C@@H]3CCNC3)n(C)c2=O)cc1 [Example 52, 2-luoro-4-{5-(4-methoxy-phenyl)-1-methyl-6-oxo-2-[(3R)-(pyrrolidin-3-ylmethyl)-amino]-1,6-dihydro-pyrimidin-4-yl}-benzonitrile] | 0.1 to 1 µM
22 | CNC1CCN(c2nc(-c3ccc(C#N)c(F)c3)c(-c3ccc(OC)cc3)c(=O)n2C)CC1 [Example 11, 2-fluoro-4-[5-(4-methoxy-phenyl)-1-methyl-2-(4-methylamino-piperidin-1-yl)-6-oxo-1,6-dihydro-pyrimidin-4-yl]-benzonitrile] | < 0.1 µM

The next lines start with the values.

Row | IC50 | Compound
23 | 0.1 to 1 µM | COc1ccc(-c2c(-c3ccc(Cl)c(F)c3)nc(N3CCC(N)CC3)n(C)c2=O)cc1 [Example 111, 2-(4-amino-piperidin-1-yl)-6-(4-chloro-3-fluoro-phenyl)-5-(4-methoxy-phenyl)-3-methyl-3H-pyrimidin-4-one]
24 | 0.1 to 1 µM | COc1ccc(-c2c(-c3ccc(C#N)c(F)c3)nc(N3CC(N)C3)n(C)c2=O)cc1 [Example 64, 4-[2-(3-amino-azetidin-1-yl)-5-(4-methoxy-phenyl)-1-methyl-6-oxo-1,6-dihydro-pyrimidin-4-yl]-2-fluoro-benzonitrile]
25 | 0.1 to 1 µM | COc1ccc(-c2c(-c3ccc(C#N)c(F)c3)nc(N3CC(CN)C3)n(C)c2=O)cc1 [Example 69, 4-[2-(3-aminomethyl-azetidin-1-yl)-5-(4-methoxy-phenyl)-1-methyl-6-oxo-1,6-dihydro-pyrimidin-4-yl]-2-fluoro-benzonitrile]
26 | < 0.1 µM | COc1ccc(-c2c(-c3ccc(C#N)c(F)c3)nc(N3CC[C@@H](N)[C@@H](F)C3)n(C)c2=O)cc1 [Example 78, 4-[2-((4R,3S)-4-amino-3-fluoro-piperidin-1-yl)-5-(4-methoxy-phenyl)-1-methyl-6-oxo-1,6-dihydro-pyrimidin-4-yl]-2-fluoro-benzonitrile]
27 | < 0.1 µM | COc1ccc(-c2c(-c3ccc(C#N)c(F)c3)nc(N3CCC(N)CC3)[nH]c2=O)cc1 [Example 122, 4-[2-(4-amino-piperidin-1-yl)-5-(4-methoxy-phenyl)-6-oxo-1,6-dihydro-pyrimidin-4-yl]-2-fluoro-benzonitrile]
28 | < 0.1 µM | COc1ccc(-c2c(-c3ccc(C#N)c(F)c3)nc(N3CC[C@H](N)[C@H](F)C3)n(C)c2=O)cc1 [Example 79, 4-[2-((4S,3R)-4-amino-3-fluoro-piperidin-1-yl)-5-(4-methoxy-phenyl)-1-methyl-6-oxo-1,6-dihydro-pyrimidin-4-yl]-2-fluoro-benzonitrile]
29 | < 0.1 µM | CCOc1ccc(-c2c(-c3ccc(C#N)c(F)c3)nc(N3CCC(N)CC3)n(C)c2=O)cn1 [Example 94, 4-[2-(4-aminopiperidin-1-yl)-5-(6-ethoxypyridin-3-yl)-1-methyl-6-oxopyrimidin-4-yl]-2-fluorobenzonitrile]
30 | < 0.1 µM | Cn1c(N2CCC(N)CC2)nc(-c2ccc(C#N)c(F)c2)c(-c2ccc(CO)cc2)c1=O [Example 100, 4-[2-(4-aminopiperidin-1-yl)-5-[4-(hydroxymethyl)phenyl]-1-methyl-6-oxopyrimidin-4-yl]-2-fluorobenzonitrile]
31 | < 0.1 µM | Cn1c(N2CCC(N)CC2)nc(-c2ccc(C#N)c(F)c2)c(-c2ccc3ccn(C)c3c2)c1=O [Example 76, 4-[2-(4-amino-piperidin-1-yl)-1-methyl-5-(1-methyl-1H-indol-6-yl)-6-oxo-1,6-dihydro-pyrimidin-4-yl]-2-fluoro-benzonitrile]
32 | < 0.1 µM | Cn1c(N2CCC(N)CC2)nc(-c2ccc(C#N)c(F)c2)c(-c2ccc(N)cc2)c1=O [Example 89, 4-[5-(4-aminophenyl)-2-(4-aminopiperidin-1-yl)-1-methyl-6-oxopyrimidin-4-yl]-2-fluorobenzonitrile]
33 | < 0.1 µM | Cn1c(N2CCC(N)CC2)nc(-c2ccc(C#N)c(F)c2)c(-c2ccc(Cl)cc2)c1=O [Example 106, 4-[2-(4-aminopiperidin-1-yl)-5-(4-chlorophenyl)-1-methyl-6-oxopyrimidin-4-yl]-2-fluorobenzonitrile]
